The molecules below were run on yellow fever virus (assay: not given). Details: not given.
Type: cell-based, yellow fever virus (YFV 17D)

Q: Which “antiviral activity vs. yellow fever virus (in words)” value does the source give for C/C(=N\NC(N)=O)c1ccc(NC(=O)Nc2nc(C)c(C(=O)NCc3ccc(Cl)cc3Cl)s2)cc1 [Compound 1, (E)-2-(3-(4-(1-(2-Carbamoylhydrazono)-ethyl)-phenyl)-ureido)-N-(2,4-dichlorobenzyl)-4-methylthiazole-5-carboxamide] here?
A: The value was “inactive”.

Q: For C/C(=N\NC(=N)N)c1ccc(NC(=O)Nc2nc(C)c(C(=O)NCc3ccc(Cl)cc3Cl)s2)cc1 [Compound 2, (E)-2-(3-(4-(1-(2-Carbamimidoylhydrazono)-ethyl)-phenyl)-ureido)-N-(2,4-dichlorobenzyl)-4-methylthiazole-5-carboxamide], which “antiviral activity vs. yellow fever virus (in words)” value is on record?
A: Its value is “active”.

Q: CC(=O)c1ccc(NC(=O)Nc2nc(C)c(C(=O)O)s2)cc1 [Compound 4, 2-[3-(4-Acetylphenyl)-ureido]-4-methylthiazole-5-carboxylic Acid] was tested. Which “antiviral activity vs. yellow fever virus (in words)” value did it give?
A: Its value is “lost its activity”.

Q: For CC(=O)c1ccc(NC(=O)Nc2nc(C)c(C(=O)NCc3ccc(Cl)cc3Cl)s2)cc1 [Compound 7, 2-(3-(4-Acetylphenyl)-ureido)-N-(2,4-dichlorobenzyl)-4-methylthiazole-5-carboxamide], which “antiviral activity vs. yellow fever virus (in words)” value is on record?
A: Its value is “inactive”.

Q: How did the “antiviral activity vs. yellow fever virus (in words)” value turn out when CC(=O)c1ccc(NC(=O)Nc2nc(C)c(C(=O)NCc3ccc(Cl)c(Cl)c3)s2)cc1 [Compound 8, 2-(3-(4-Acetylphenyl)-ureido)-N-(3,4-dichlorobenzyl)-4-methylthiazole-5-carboxamide] was run?
A: Its value is “active”.

Q: Which “antiviral activity relative to parent compound M02” value does the source give for Cc1nc(-n2nc(-c3ccccc3)cc2-c2ccccc2)sc1C(=O)NCc1ccc(Cl)c(Cl)c1 [Compound 11, N-(3,4-Dichlorobenzyl)-2-(3,5-diphenyl-1H-pyrazol-1-yl)-4-methylthiazole-5-carboxamide] here?
A: Its value is 10 times.

Q: How did the “antiviral activity vs. yellow fever virus (in words)” value turn out when COC(=O)c1sc(N(Cc2ccc(C(C)=O)cc2)Cc2ccc(C(C)=O)cc2)nc1C [Compound 18, Methyl 2-(Bis(4-acetylbenzyl)amino)-4-methylthiazole-5-carboxylate] was run?
A: The value was “active”.

Q: Which “antiviral activity vs. yellow fever virus (in words)” value does the source give for Nc1ccc(SCc2csc(-c3cccnc3)n2)cc1 [Compound 28] here?
A: Its value is “lose antiviral activity”.

Q: How did the “antiviral activity vs. yellow fever virus (in words)” value turn out when Nc1ccccc1SCc1csc(-c2cccnc2)n1 [Compound 29] was run?
A: Its value is “lose antiviral activity”.

Q: Which “antiviral activity vs. yellow fever virus (in words)” value does the source give for Clc1ccc(-c2nc(CSc3cccc(Cl)c3)cs2)cc1 [Compound 30] here?
A: Its value is “lose antiviral activity”.

Q: COC(=O)c1sc(-c2ccc(Cl)cc2)nc1C [Compound 32, 2-(4-Chlorophenyl)-4-methyl-thiazole-5-carboxylic Acid Methyl Ester] was tested. Which “antiviral activity vs. yellow fever virus (in words)” value did it give?
A: The value was “inactive”.

Each molecule was assayed on BHK cells (assay: Cell viability assay). Details: CC50 compared with M02.

Q: Which “cytotoxicity relative to parent compound M02 (times less)” value does the source give for Cc1nc(-n2nc(-c3ccccc3)cc2-c2ccccc2)sc1C(=O)NCc1ccc(Cl)c(Cl)c1 [Compound 11, N-(3,4-Dichlorobenzyl)-2-(3,5-diphenyl-1H-pyrazol-1-yl)-4-methylthiazole-5-carboxamide] here?
A: Its value is 2.7 times.

— publication PMC2562352 (Journal of medicinal chemistry, 2008)
